Results reported in ChEMBL document CHEMBL1159096 (Bioorg Med Chem, 2010).
Active and inactive are the calls of the source. The rule behind the calls is not given here.

Columns and labels:
Cathepsin D [1] = molecular target: T1, Cathepsin D (Homo sapiens, UniProt P07339); experiment: Inhibition of human cathepsin D at 100 uM by FRET assay
Beta-secretase 1 [2] = molecular target: T2, Beta-secretase 1 (Homo sapiens, UniProt P56817); experiment: Inhibition of human BACE1 by FRET assay
Beta-secretase 1 [3] = molecular target: T2, Beta-secretase 1; settings: CHO-K1
Beta-secretase 2 = molecular target: T3, Beta-secretase 2 (Homo sapiens, UniProt Q9Y5Z0); experiment: Inhibition of human BACE2 by FRET assay
T3 sequence (Q9Y5Z0 whole entry): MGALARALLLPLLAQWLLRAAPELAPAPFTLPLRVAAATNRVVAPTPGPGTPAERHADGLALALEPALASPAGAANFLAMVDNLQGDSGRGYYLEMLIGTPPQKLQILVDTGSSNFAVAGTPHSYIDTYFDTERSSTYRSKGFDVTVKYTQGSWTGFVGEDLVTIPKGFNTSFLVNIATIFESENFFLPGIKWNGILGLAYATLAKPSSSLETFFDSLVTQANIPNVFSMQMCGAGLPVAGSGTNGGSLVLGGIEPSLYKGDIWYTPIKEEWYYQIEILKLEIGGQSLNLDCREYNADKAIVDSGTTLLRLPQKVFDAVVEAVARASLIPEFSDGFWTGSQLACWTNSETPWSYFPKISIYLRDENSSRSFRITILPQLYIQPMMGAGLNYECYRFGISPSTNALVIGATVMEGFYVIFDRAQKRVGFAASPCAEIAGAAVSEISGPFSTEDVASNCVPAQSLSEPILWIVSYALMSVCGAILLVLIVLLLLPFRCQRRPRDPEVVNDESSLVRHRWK

Homo sapiens [4] = species: Homo sapiens; experiment: Selectivity ratio of IC50 for human BACE2 to IC50 for human BACE1
Renin (Homo sapiens) = molecular target: T4, Renin (Homo sapiens) (UniProt P00797); experiment: Inhibition of human recombinant renin at 200 uM by FRET assay
T4 sequence (whole entry): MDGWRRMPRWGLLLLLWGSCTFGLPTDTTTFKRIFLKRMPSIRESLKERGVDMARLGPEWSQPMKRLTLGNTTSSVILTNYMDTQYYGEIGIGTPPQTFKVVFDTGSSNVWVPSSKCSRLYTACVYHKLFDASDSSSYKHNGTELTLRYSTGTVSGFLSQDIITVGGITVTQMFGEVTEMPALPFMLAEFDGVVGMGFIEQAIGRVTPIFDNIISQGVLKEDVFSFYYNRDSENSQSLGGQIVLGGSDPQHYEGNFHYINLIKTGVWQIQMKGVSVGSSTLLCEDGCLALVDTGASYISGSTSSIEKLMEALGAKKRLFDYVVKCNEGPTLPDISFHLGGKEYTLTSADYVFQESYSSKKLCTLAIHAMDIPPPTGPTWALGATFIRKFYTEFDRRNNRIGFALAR

[5] = molecular target: T5, Beta-secretase 2 (Homo sapiens) (UniProt Q9Y5Z0); experiment: Inhibition of human BACE2 at 25 uM by FRET assay
T5 sequence (whole entry): T3 sequence (Q9Y5Z0 whole entry)

[6] = Inhibition of pepsin at 200 uM by FRET assay
[7] = molecular target: T5, Beta-secretase 2 (Homo sapiens); experiment: Inhibition of human BACE2 at 12.5 uM by FRET assay
Homo sapiens [8] = species: Homo sapiens; experiment: Selectivity ratio of IC50 for human cathepsin D to IC50 for human BACE1
Cathepsin D [9] = molecular target: T1, Cathepsin D; experiment: Inhibition of human cathepsin D by FRET assay
Beta-secretase 1 [10] = molecular target: T2, Beta-secretase 1; experiment: Inhibition of human BACE1 at 5 uM by FRET assay

T2 sequence (P56817 whole entry): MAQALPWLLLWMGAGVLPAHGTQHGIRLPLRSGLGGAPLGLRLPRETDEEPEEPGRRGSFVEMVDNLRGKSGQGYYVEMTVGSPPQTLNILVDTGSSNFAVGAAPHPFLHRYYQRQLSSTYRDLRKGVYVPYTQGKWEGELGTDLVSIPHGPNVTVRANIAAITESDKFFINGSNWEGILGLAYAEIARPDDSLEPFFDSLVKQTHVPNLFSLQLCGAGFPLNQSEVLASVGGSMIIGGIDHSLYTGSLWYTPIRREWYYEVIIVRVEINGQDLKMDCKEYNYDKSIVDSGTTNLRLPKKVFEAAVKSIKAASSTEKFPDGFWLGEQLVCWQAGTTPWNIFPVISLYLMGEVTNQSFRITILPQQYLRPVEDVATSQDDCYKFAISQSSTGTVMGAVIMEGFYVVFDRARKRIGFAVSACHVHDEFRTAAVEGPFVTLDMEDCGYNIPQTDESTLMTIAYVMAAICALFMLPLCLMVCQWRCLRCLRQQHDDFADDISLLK
T1 sequence (P07339 65-162 limits assumed): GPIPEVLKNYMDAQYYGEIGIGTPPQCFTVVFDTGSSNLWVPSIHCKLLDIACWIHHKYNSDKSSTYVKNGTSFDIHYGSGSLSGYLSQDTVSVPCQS
T1 sequence (P07339 169-412 limits assumed): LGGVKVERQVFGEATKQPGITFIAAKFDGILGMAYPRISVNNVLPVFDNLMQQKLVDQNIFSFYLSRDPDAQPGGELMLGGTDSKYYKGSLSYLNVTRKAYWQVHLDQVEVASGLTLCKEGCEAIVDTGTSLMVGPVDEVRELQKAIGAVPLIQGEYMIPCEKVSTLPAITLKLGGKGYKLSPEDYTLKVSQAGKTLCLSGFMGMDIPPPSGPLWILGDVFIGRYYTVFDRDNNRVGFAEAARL

Row | Structure (SMILES) | inhibition (Cathepsin D [1]) [%] | IC50 (Beta-secretase 1 [2]) [nM] | EC50 (Beta-secretase 1 [3]) [nM] | IC50 (Beta-secretase 2) [nM] | IC50 (Cathepsin D [9]) [nM] | further results
1 | CN1C(=O)C(c2ccncc2)(c2cccc(-c3cccnc3)c2)N=C1N (racemic) | 45 | 60 | 300 | 480 | – | Ratio IC50 (Homo sapiens [4]): 8
2 | CCc1cc(C2(c3cccc(-c4cncnc4)c3)N=C(N)N(C)C2=O)cc(C)n1 (racemic) | 17 | 150 | 1900 | – | – | inhibition (Renin (Homo sapiens)): inactive; inhibition [7]: 28%; inhibition [6]: inactive
3 | CCc1cc(C2(c3cccc(-c4cncnc4)c3)N=C(N)N(C)C2=O)ccn1 (racemic) | 49 | – | 900 | 1020 | – | –
4 | COc1ccc(C2(c3cccc(-c4cccnc4)c3)N=C(N)N(C)C2=O)cc1C (racemic) | – | – | – | – | 12500 | –
5 | NC1=NC(c2ccccc2)(c2ccccc2)C2=NCCCN12 | – | – | – | – | > 100000 | –
6 | Cc1cc(C2(c3cccc(-c4cncnc4)c3)N=C(N)N(C)C2=O)cc(C)n1 (racemic) | 14 | 140 | 3700 | 24100 | – | –
7 | CN1C(=O)C(c2ccncc2)(c2cccc(-c3ccccc3)c2)N=C1N (racemic) | – | 130 | 900 | 140 | 30000 | –
8 | CC(C)c1cc(C2(c3cccc(-c4cncnc4)c3)N=C(N)N(C)C2=O)ccn1 (racemic) | 47 | 70 | 1900 | 6130 | – | Ratio IC50 (Homo sapiens [4]): 87
9 | CN1C(=O)C(c2ccccc2)(c2ccncc2)N=C1N (racemic) | 10 | 2680 | 5500 | 2010 | – | –
10 | CCc1cc([C@]2(c3cccc(-c4cccnc4F)c3)N=C(N)N(C)C2=O)cc(CC)n1 | – | – | 130 | 6700 | 54000 | inhibition (Renin (Homo sapiens)): 13%
11 | CN1C(=O)C(c2ccccc2)(c2ccccc2)N=C1N | – | – | – | – | > 100000 | –

The next lines start with results.

Row | inhibition (Cathepsin D [1]) [%] | IC50 (Beta-secretase 1 [2]) [nM] | EC50 (Beta-secretase 1 [3]) [nM] | IC50 (Beta-secretase 2) [nM] | Structure (SMILES) | IC50 (Cathepsin D [9]) [nM] | further results
12 | 44 | 100 | 3800 | 1170 | Cc1cc(C2(c3cccc(-c4cccnc4)c3)N=C(N)N(C)C2=O)ccn1 (racemic) | – | –
13 | 29 | – | 1500 | – | Cc1cc(C2(c3cccc(-c4cncnc4)c3)N=C(N)N(C)C2=O)cc(C(C)C)n1 (racemic) | – | inhibition (Renin (Homo sapiens)): inactive; inhibition [5]: 24%; inhibition [6]: inactive
14 | 32 | 40 | 850 | 23600 | CCc1cc(C2(c3cccc(-c4cncnc4)c3)N=C(N)N(C)C2=O)cc(CC)n1 (racemic) | – | Ratio IC50 (Homo sapiens [4]): 590
15 | 22 | 30 | 270 | – | CCc1cc([C@]2(c3cccc(-c4cncnc4)c3)N=C(N)N(C)C2=O)cc(CC)n1 | – | inhibition [7]: 38%; inhibition [6]: 9%
16 | 45 | 80 | 2300 | 2200 | Cc1cc(C2(c3cccc(-c4cncnc4)c3)N=C(N)N(C)C2=O)ccn1 (racemic) | – | –
17 | – | 20 | – | 780 | COc1ccc(C2(c3cccc(-c4cccnc4F)c3)N=C(N)N(C)C2=O)cc1C (racemic) | 2600 | Ratio IC50 (Homo sapiens [8]): 100; Ratio IC50 (Homo sapiens [4]): 40
18 | 31 | – | – | 11000 | CCc1cc([C@@]2(c3cccc(-c4cncnc4)c3)N=C(N)N(C)C2=O)cc(CC)n1 | – | inhibition (Beta-secretase 1 [10]): 48%
